The target of one assay is human orexin-1 receptor (Homo sapiens (Human), UniProt O43613). Kind of assay: In vitro assay: intracellular calcium measurements (FLIPR), antagonistic activity. The following applies: CHO cells expressing human orexin-1 receptor, orexin-A agonist, geometric mean, read-out: IC50 Ox1. Type of assay: cell-based. In a few lines:
(§1)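 Read-out: FLIPR fluo-4 calcium peak height in CHO cells bearing human orexin-1 or orexin-2 receptor, relative to orexin-A (approx. EC70) with vehicle. Antagonist preincubation 120 min; agonist orexin-A at 3 nM final. IC50 possibly normalized to an on-plate reference compound.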
(In general: A change in cytosolic calcium serves as a functional read-out for many receptors and channels.)

The target in the next assay is human orexin-2 receptor (Homo sapiens (Human), UniProt O43614). The description is as above. The following applies: CHO cells expressing human orexin-2 receptor, orexin-A agonist, geometric mean, read-out: IC50 Ox2. The assay is classed as cell-based. In outline: as §1

This note sets out measurements from patent US9732075B2, “Benzimidazole-proline derivatives” (IDORSIA PHARMACEUTICALS LTD, priority 2012, dated 2017).

Structures are written as SMILES.

Chain of human orexin-1 receptor (O43613 whole entry): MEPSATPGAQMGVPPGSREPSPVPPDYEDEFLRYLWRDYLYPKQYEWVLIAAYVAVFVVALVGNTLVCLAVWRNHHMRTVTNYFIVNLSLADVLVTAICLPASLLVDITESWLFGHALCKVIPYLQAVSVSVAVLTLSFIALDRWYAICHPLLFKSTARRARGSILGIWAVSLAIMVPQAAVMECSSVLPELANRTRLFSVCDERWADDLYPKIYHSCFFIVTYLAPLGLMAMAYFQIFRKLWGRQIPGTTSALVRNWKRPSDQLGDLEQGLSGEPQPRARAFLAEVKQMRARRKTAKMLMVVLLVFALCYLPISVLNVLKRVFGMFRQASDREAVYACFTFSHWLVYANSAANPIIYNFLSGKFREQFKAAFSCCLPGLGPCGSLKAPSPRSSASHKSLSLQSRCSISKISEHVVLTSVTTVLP
Chain of human orexin-2 receptor (O43614 whole entry): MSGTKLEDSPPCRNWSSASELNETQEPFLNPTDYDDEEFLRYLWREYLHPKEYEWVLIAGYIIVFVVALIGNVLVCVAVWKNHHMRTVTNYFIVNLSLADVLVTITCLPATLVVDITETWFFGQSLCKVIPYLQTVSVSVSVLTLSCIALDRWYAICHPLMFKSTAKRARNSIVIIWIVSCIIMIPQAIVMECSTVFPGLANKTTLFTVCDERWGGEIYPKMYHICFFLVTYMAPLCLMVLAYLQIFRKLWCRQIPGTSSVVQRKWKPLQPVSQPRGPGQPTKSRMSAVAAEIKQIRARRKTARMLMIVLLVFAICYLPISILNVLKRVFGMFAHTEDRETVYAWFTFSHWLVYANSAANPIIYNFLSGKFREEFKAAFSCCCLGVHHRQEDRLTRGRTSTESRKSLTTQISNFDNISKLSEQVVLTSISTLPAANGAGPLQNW

The term IC50 denotes the concentration that gives 50% inhibition. Regarding `C=C1C[C@@H](c2nc3cc(OC)ccc3[nH]2)N(C(=O)c2ccccc2-n2nccn2)C1` [Ex. 6.13], the IC50 at human orexin-1 receptor turned out to be 155 nM; at human orexin-2 receptor, 17 nM.

Turning to `C=C1C[C@@H](c2nc3cc(OC)ccc3[nH]2)N(C(=O)c2ccccc2-c2cccc(C)c2)C1` [Ex. 6.14], the values for the IC50 at human orexin-1 receptor and at human orexin-2 receptor were 87 nM and 12 nM, respectively.

As for `C=C1C[C@@H](c2nc3cc(OC)ccc3[nH]2)N(C(=O)c2ccccc2-c2ccc(C)cc2)C1` [Ex. 6.15], the IC50 is 298 nM at human orexin-1 receptor and 37 nM on human orexin-2 receptor.

Take `C=C1C[C@@H](c2nc3cc(OC)ccc3[nH]2)N(C(=O)c2cnc(C)nc2-c2ccccc2)C1` [Ex. 6.16]: the IC50 stood at 307 nM at human orexin-1 receptor and 151 nM on human orexin-2 receptor.

`C=C1C[C@@H](c2nc3cc(OC)ccc3[nH]2)N(C(=O)c2cncnc2-c2cccc(C)c2)C1` [Ex. 6.17]: the figures for the IC50 on human orexin-1 receptor and on human orexin-2 receptor were 308 nM and 47 nM, respectively.

With `C=C1C[C@@H](c2nc3cc(OC)ccc3[nH]2)N(C(=O)c2cc(F)ccc2-n2nccn2)C1` [Ex. 6.18], the figures for the IC50 on human orexin-1 receptor and on human orexin-2 receptor were 1530 nM and 29 nM, respectively.

Take `C=C1C[C@@H](c2nc3cc(OC)ccc3[nH]2)N(C(=O)c2c(F)cccc2-n2nccn2)C1` [Ex. 6.19]: the IC50 came out at 1530 nM at human orexin-1 receptor and 61 nM on human orexin-2 receptor.

On to `C=C1C[C@@H](c2nc3cc(OC)ccc3[nH]2)N(C(=O)c2ccccc2-c2nc(C)no2)C1` [Ex. 6.20], for which the figures for the IC50 on human orexin-1 receptor and at human orexin-2 receptor were 1750 nM and 49 nM, respectively.

As for `C=C1C[C@@H](c2nc3cc(OC)ccc3[nH]2)N(C(=O)c2ccccc2-c2csc(C)n2)C1` [Ex. 6.21], the figures for the half-inhibitory concentration (IC50) on human orexin-1 receptor and at human orexin-2 receptor were 1970 nM and 76 nM, respectively.

Take `C=C1C[C@@H](c2nc3cc(OC)ccc3[nH]2)N(C(=O)c2nc(C)sc2-c2ccc(Br)cc2)C1` [Ex. 6.22]: the values for the IC50 on human orexin-1 receptor and at human orexin-2 receptor were 410 nM and 19 nM, respectively.

For the compound `C=C1C[C@@H](c2nc3cc(OC)ccc3[nH]2)N(C(=O)c2nc(C)sc2-c2cccc(Cl)c2Cl)C1` [Ex. 6.23], the IC50 on human orexin-1 receptor is 452 nM; at human orexin-2 receptor, 67 nM.

As to `C=C1C[C@@H](c2nc3cc(OC)ccc3[nH]2)N(C(=O)c2nc(C)sc2-c2ccc(F)c(Br)c2)C1` [Ex. 6.24], the figures for the IC50 at human orexin-1 receptor and at human orexin-2 receptor were 53 nM and 17 nM, respectively.

For `C=C1C[C@@H](c2nc3cc(OC)ccc3[nH]2)N(C(=O)c2nc(C3CC3)sc2-c2ccc(C)c(F)c2)C1` [Ex. 6.25], the IC50 was found to be 154 nM on human orexin-1 receptor and 52 nM on human orexin-2 receptor.

`C=C1C[C@@H](c2nc3cc(OC)ccc3[nH]2)N(C(=O)c2nc(C3CC3)sc2-c2cccc(C)c2)C1` [Ex. 6.26]: the IC50 at human orexin-1 receptor is 26 nM; on human orexin-2 receptor, 24 nM.

Turning to `C=C1C[C@@H](c2nc3cc(OC)ccc3[nH]2)N(C(=O)c2nc(N(C)C)sc2-c2ccc(C)c(C)c2)C1` [Ex. 6.27], the values for the IC50 at human orexin-1 receptor and at human orexin-2 receptor were 5 nM and 9 nM, respectively.

Take `C=C1C[C@@H](c2nc3cc(OC)ccc3[nH]2)N(C(=O)c2nc(C3CC3)sc2-c2cccc(Br)c2)C1` [Ex. 6.28]: the IC50 at human orexin-1 receptor was 20 nM; on human orexin-2 receptor it was 15 nM.

Take `C=C1C[C@@H](c2nc3cc(OC)ccc3[nH]2)N(C(=O)c2nc(N3CCCC3)sc2-c2cccc(F)c2)C1` [Ex. 6.29]: the IC50 on human orexin-1 receptor is 69 nM; at human orexin-2 receptor, 92 nM.

On to `C=C1C[C@@H](c2nc3cc(OC)ccc3[nH]2)N(C(=O)c2nc(C)sc2-c2cccc(C(F)(F)F)c2)C1` [Ex. 6.30], for which the IC50 was 203 nM at human orexin-1 receptor and 31 nM on human orexin-2 receptor.

Consider `C=C1C[C@@H](c2nc3cc(OC)ccc3[nH]2)N(C(=O)c2nc(C3CC3)sc2-c2cccc(OC)c2)C1` [Ex. 6.31], for which the IC50 at human orexin-1 receptor turned out to be 41 nM; at human orexin-2 receptor it was 22 nM.

With `C=C1C[C@@H](c2nc3cc(OC)ccc3[nH]2)N(C(=O)c2ncsc2-c2cccc(Cl)c2)C1` [Ex. 6.32], the IC50 on human orexin-1 receptor amounted to 814 nM; on human orexin-2 receptor it was 103 nM.

As for `C=C1C[C@@H](c2nc3cc(OC)ccc3[nH]2)N(C(=O)c2nc(C)sc2-c2cccc(F)c2)C1` [Ex. 6.33], the IC50 at human orexin-1 receptor was 213 nM; on human orexin-2 receptor, 23 nM.

In the case of `C=C1C[C@@H](c2nc3cc(OC)ccc3[nH]2)N(C(=O)c2nc(C)sc2-c2ccccc2Cl)C1` [Ex. 6.34], the concentration for half-maximal inhibition (IC50) on human orexin-1 receptor was 398 nM; on human orexin-2 receptor it was 66 nM.

Turning to `C=C1C[C@@H](c2nc3cc(OC)ccc3[nH]2)N(C(=O)c2nc(C3CC3)sc2-c2ccc(C)cc2)C1` [Ex. 6.35], the IC50 on human orexin-1 receptor worked out at 146 nM; on human orexin-2 receptor, 80 nM.

As to `C=C1C[C@@H](c2nc3cc(OC)ccc3[nH]2)N(C(=O)c2cc(C)sc2-c2ccc(C)c(C)c2)C1` [Ex. 6.36], the half-inhibitory concentration (IC50) on human orexin-1 receptor stood at 15 nM; on human orexin-2 receptor it was 2 nM.

Regarding `C=C1C[C@@H](c2nc3cc(OC)ccc3[nH]2)N(C(=O)c2nc(C)sc2-c2cc(F)cc(F)c2)C1` [Ex. 6.37], the IC50 came to 422 nM on human orexin-1 receptor and 45 nM on human orexin-2 receptor.

Take `C=C1C[C@@H](c2nc3cc(OC)ccc3[nH]2)N(C(=O)c2ccsc2-c2cccc(C)c2)C1` [Ex. 6.38]: the IC50 turned out to be 269 nM on human orexin-1 receptor and 19 nM on human orexin-2 receptor.

Take `C=C1C[C@@H](c2nc3cc(OC)ccc3[nH]2)N(C(=O)c2ccsc2-c2ccc(C)c(C)c2)C1` [Ex. 6.39]: the IC50 at human orexin-1 receptor was found to be 106 nM; on human orexin-2 receptor, 9 nM.

With `C=C1C[C@@H](c2nc3c(C)cccc3[nH]2)N(C(=O)c2nc(C)sc2-c2ccccc2)C1` [Ex. 6.40], the IC50 is 70 nM at human orexin-1 receptor and 9 nM at human orexin-2 receptor.

As to `C=C1C[C@@H](c2nc3c(C)c(Cl)ccc3[nH]2)N(C(=O)c2nc(C)sc2-c2ccccc2)C1` [Ex. 6.41], the IC50 at human orexin-1 receptor is 4 nM; on human orexin-2 receptor, 2 nM.

For the compound `C=C1C[C@@H](c2nc3c(C)c(Cl)ccc3[nH]2)N(C(=O)c2cc(C)ccc2-n2nccn2)C1` [Ex. 6.42], the IC50 at human orexin-1 receptor came to 12 nM; on human orexin-2 receptor, 2 nM.

In the case of `C=C1C[C@@H](c2nc3ccccc3[nH]2)N(C(=O)c2nc(C)sc2-c2cccc(Cl)c2)C1` [Ex. 6.43], the IC50 is 368 nM on human orexin-1 receptor and 62 nM at human orexin-2 receptor.

Take `C=C1C[C@@H](c2nc3c(C)cccc3[nH]2)N(C(=O)c2nc(C)sc2-c2cccc(Cl)c2)C1` [Ex. 6.44]: the IC50 at human orexin-1 receptor amounted to 10 nM; on human orexin-2 receptor, 2 nM.

For the compound `C=C1C[C@@H](c2nc3c(C)c(Cl)ccc3[nH]2)N(C(=O)c2nc(C)sc2-c2cccc(Cl)c2)C1` [Ex. 6.45], the IC50 on human orexin-1 receptor and on human orexin-2 receptor was 1 nM throughout.

As to `C=C1C[C@@H](c2nc3ccc(OC)cc3[nH]2)N(C(=O)c2nc(C)sc2-c2ccc(C)c(C)c2)C1` [Ex. 6.46], the figures for the IC50 at human orexin-1 receptor and at human orexin-2 receptor were 30 nM and 4 nM, respectively.

Consider `C=C1C[C@@H](c2nc3c(C)c(C)ccc3[nH]2)N(C(=O)c2nc(C)sc2-c2ccc(C)c(C)c2)C1` [Ex. 6.47], for which the 50% inhibitory concentration (IC50) on human orexin-1 receptor amounted to 6 nM; at human orexin-2 receptor it was 1 nM.

Consider `C=C1C[C@@H](c2nc3c(OC)ccc(OC)c3[nH]2)N(C(=O)c2nc(C)sc2-c2ccc(C)c(C)c2)C1` [Ex. 6.48], for which the IC50 on human orexin-1 receptor came to 14 nM; on human orexin-2 receptor, 7 nM.

In the case of `C=C1C[C@@H](c2nc3c(SC)cccc3[nH]2)N(C(=O)c2nc(C)sc2-c2ccc(C)c(C)c2)C1` [Ex. 6.49], the IC50 at human orexin-1 receptor worked out at 3 nM; on human orexin-2 receptor, 1 nM.

For `C=C1C[C@@H](c2nc3c(Br)cccc3[nH]2)N(C(=O)c2nc(C)sc2-c2ccc(C)c(C)c2)C1` [Ex. 6.50], the IC50 was determined as 5 nM on human orexin-1 receptor and 1 nM on human orexin-2 receptor.
